The structures appear in SMILES notation.

This note sets out measurements from article PMC5718519, “Crystal structures of ternary complexes of archaeal B-family DNA polymerases” (PLoS ONE, 2017).

In this assay the target is T1, KOD DNA pol (exo-) (Thermococcus kodakarensis, UniProt P77933, D141A/E143A).
T1 construct: exonuclease-deficient mature polymerase (inteins absent); codon-optimized, pET24a, E. coli BL21(DE3); heparin and Superdex 75; no tag mentioned
Briefly: X-ray crystal structure of closed ternary complex. In kind it is binding. As to conditions: with ddC-terminated primer/template DNA; Mg2+ (site A) and two Mn2+ (sites B, C); polymerase active site; pH 7.5.

As to `Nc1ncnc2c1ncn2[C@H]1C[C@H](O)[C@@H](COP(=O)(O)OP(=O)(O)OP(=O)(O)O)O1` [dATP, 2’-deoxy-adenosine-5’-triphosphate], the “X-ray crystal structure of closed ternary complex” value was “KOD DNA pol binds the incoming dATP in a pocket formed by the palm”.
